Test results published in US10385024B2, “Compounds and methods for inhibiting NHE-mediated antiport in the treatment of disorders associated with fluid retention or salt overload and gastrointestinal tract disorders” (Ardelyx, Inc., priority 2012, dated 2019).

Key:
human NHE-3 = target: T1, human NHE-3 (Homo sapiens, UniProt P48764); experiment: Cell-based assay of NHE-3 activity (human NHE3 inhibition assay); conditions: OK cells with human NHE-3 gene, BCECF pH dye, 0-30 μM test compound; for IC50: read-out: Human NHE3 pIC50 (converted)
T1 construct: expressed in transfected cells; host or cells: Opossum kidney (OK) cells (ATCC), transfected by electroporation
T1 sequence (P48764 26-834): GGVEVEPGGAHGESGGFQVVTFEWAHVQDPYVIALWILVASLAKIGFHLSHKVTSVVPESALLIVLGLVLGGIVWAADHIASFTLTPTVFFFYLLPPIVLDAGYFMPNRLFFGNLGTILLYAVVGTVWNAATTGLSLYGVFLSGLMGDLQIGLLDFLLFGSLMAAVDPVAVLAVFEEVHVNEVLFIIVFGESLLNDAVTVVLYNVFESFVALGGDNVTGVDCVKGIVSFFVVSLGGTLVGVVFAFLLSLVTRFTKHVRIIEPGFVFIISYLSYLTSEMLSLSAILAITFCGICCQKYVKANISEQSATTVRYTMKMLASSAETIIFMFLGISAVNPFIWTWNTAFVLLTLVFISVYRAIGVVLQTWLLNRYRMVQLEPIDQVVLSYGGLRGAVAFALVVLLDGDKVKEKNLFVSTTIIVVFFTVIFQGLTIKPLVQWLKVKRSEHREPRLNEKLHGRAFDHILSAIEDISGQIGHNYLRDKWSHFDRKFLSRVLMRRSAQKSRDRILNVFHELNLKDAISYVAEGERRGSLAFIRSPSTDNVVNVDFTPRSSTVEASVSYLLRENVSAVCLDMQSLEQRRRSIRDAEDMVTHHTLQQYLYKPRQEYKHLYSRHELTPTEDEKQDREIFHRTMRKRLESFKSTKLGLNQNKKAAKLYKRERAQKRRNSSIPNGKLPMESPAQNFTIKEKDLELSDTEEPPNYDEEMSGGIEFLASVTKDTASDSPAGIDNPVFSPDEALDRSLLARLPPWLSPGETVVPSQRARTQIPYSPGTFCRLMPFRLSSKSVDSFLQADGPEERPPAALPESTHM
Description: (§1) Rat or human NHE-3-mediated Na^+-dependent H^+ antiport was measured using a modification of the pH sensitive dye method originally reported by Paradiso (Proc. Natl. Acad. Sci. USA. (1984) 81(23): 7436-7440). Opossum kidney (OK) cells were obtained from the ATCC and propagated per their instructions. The rat NHE-3 gene (GenBank M85300) or the human NHE-3 gene (GenBank NM_004174.1) was introduced into OK cells via electroporation, and cells were seeded into 96 well plates and grown overnight. Medium was aspirated from the wells, cells were washed twice with NaCl-HEPES buffer (100 mM NaCl, 50 mM HEPES, 10 mM glucose, 5 mM KCl, 2 mM CaCl2, 1 mM MgCl2, pH 7.4), then incubated for 30 min at room temperature with NH4Cl-HEPES buffer (20 mM NH4Cl, 80 mM NaCl, 50 mM HEPES, 5 mM KCl, 2 mM CaCl2, 1 mM MgCl2, pH 7.4) containing 5 μM bis(acetoxymethyl) 3,3′-(3′,6′-bis(acetoxymethoxy)-5-((acetoxymethoxy)carbonyl)-3-oxo-3H-spiro[isobenzofuran-1,9′-xanthene]-2′,7′-diyl)dipropanoate (BCECF-AM). Cells were washed twice with Ammonium free, Na^+-free HEPES (100 mM choline, 50 mM HEPES, 10 mM glucose, 5 mM KCl, 2 mM CaCl2, 1 mM MgCl2, pH 7.4) and incubated in the same buffer for 10 minutes at room temperature to lower intracellular pH. […] Initial rates were plotted as the average 2 or more replicates, and pIC50 values were estimated using GraphPad Prism.

Rat NHE-3 [1] = target: T2, Rat NHE-3 (Rattus norvegicus, UniProt P26433); experiment: Cell-based assay of NHE-3 activity (rat NHE-3 prompt inhibition); conditions: OK cells with rat NHE-3 gene, compound present during pH recovery; read-out: Rat NHE3 pIC50 (prompt) (converted)
T2 construct: expressed in transfected cells; host or cells: Opossum kidney (OK) cells (ATCC), transfected by electroporation
T2 sequence (P26433 29-831): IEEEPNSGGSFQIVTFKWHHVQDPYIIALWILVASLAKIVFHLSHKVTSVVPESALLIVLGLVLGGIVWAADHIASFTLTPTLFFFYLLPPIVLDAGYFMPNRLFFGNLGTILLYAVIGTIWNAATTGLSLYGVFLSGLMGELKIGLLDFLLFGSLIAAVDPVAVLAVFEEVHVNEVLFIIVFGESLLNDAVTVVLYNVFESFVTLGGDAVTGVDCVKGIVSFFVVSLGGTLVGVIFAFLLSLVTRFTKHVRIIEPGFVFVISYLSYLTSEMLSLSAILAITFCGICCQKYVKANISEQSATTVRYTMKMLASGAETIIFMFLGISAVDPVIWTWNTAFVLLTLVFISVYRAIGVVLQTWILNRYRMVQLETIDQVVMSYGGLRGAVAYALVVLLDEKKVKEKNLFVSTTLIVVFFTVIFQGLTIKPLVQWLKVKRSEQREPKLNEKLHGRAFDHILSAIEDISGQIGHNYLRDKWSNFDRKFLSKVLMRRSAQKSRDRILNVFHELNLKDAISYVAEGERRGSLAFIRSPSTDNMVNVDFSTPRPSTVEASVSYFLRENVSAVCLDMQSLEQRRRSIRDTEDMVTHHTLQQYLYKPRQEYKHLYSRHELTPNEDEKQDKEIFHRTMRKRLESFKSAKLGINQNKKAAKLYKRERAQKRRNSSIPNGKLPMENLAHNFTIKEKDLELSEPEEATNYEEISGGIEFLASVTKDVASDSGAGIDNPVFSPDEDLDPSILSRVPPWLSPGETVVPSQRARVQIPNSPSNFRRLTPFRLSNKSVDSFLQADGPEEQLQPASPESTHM
Description: as §1

Rat NHE-3 [2] = target: T2, Rat NHE-3; experiment: Cell-based assay of NHE-3 activity (persistent inhibition, after washout); conditions: OK cells with rat NHE-3 gene, 60 min incubation, recovery initiated 40 min after compound washout; read-out: Rat NHE3 pIC50 (persistent) (converted)
Description: The ability of compounds to inhibit Rat NHE-3-mediated Na^+-dependent H^+ antiport after application and washout was measured using a modification of the pH sensitive dye method described above in Example 74. Opossum kidney (OK) cells were obtained from the ATCC and propagated per their instructions. The rat NHE-3 gene was introduced into OK cells via electroporation, and cells were seeded into 96 well plates and grown overnight. Medium was aspirated from the wells, cells were washed twice with NaCl-HEPES buffer (100 mM NaCl, 50 mM HEPES, 10 mM glucose, 5 mM KCl, 2 mM CaCl2, 1 mM MgCl2, pH 7.4), then overlayed with NaCl-HEPES buffer containing 0-30 μM test compound. After a 60 min incubation, the test drug containing buffer was aspirated from the cells, cells were washed twice with NaCl-HEPES buffer without drug, then incubated for 30 min at room temperature with NH4Cl-HEPES buffer (20 mM NH4Cl, 80 mM NaCl, 50 mM HEPES, 5 mM KCl, 2 mM CaCl2, 1 mM MgCl2, pH 7.4) containing 5 μM BCECF-AM. Cells were washed twice with ammonium free, Na^+-free HEPES (100 mM choline, 50 mM HEPES, 10 mM glucose, 5 mM KCl, 2 mM CaCl2, 1 mM MgCl2, pH 7.4) and incubated in the same buffer for 10 minutes at room temperature to lower intracellular pH. […] Initial rates were plotted as the average 2 or more replicates, and pIC50 values were estimated using GraphPad Prism.

SMILES | IC50 (human NHE-3) [µM] | IC50 (Rat NHE-3 [1]) [µM] | IC50 (Rat NHE-3 [2]) [µM] | Human NHE3 pIC50 (human NHE-3)
CN1Cc2c(Cl)cc(Cl)cc2[C@H](c2cccc(S(=O)(=O)NCCOCCOCCNC(=O)CCC(CCC(=O)NCCOCCOCCNS(=O)(=O)c3cccc([C@@H]4CN(C)Cc5c(Cl)cc(Cl)cc54)c3)(CCC(=O)NCCOCCOCCNS(=O)(=O)c3cccc([C@@H]4CN(C)Cc5c(Cl)cc(Cl)cc54)c3)[N+](=O)[O-])c2)C1 [Example 1, N1,N7-bis(2-(2-(2-(3-((S)-6,8-dichloro-2-methyl-1,2,3,4-tetrahydroisoquinolin-4-yl)phenylsulfonamido)ethoxy)ethoxy)ethyl)-4-(3-(2-(2-(2-(3-((S)-6,8-dichloro-2-methyl-1,2,3,4-tetrahydroisoquinolin-4-yl)phenylsulfonamido)ethoxy)ethoxy)ethylamino)-3-oxopropyl)-4-nitroheptanediamide] | 0.1 to 10 | 0.1 to 10 | < 0.1 | –
CN1Cc2c(Cl)cc(Cl)cc2[C@H](c2cccc(S(=O)(=O)NCCOCCOCCOCCNC(=O)CCC(CCC(=O)NCCOCCOCCOCCNS(=O)(=O)c3cccc([C@@H]4CN(C)Cc5c(Cl)cc(Cl)cc54)c3)(CCC(=O)NCCOCCOCCOCCNS(=O)(=O)c3cccc([C@@H]4CN(C)Cc5c(Cl)cc(Cl)cc54)c3)NC(=O)Nc3ccccc3)c2)C1 [Example 13, 4-(1-(3-((S)-6,8-dichloro-2-methyl-1,2,3,4-tetrahydroisoquinolin-4-yl)phenylsulfonamido)-13-oxo-3,6,9-trioxa-12-azapentadecan-15-yl)-N^1,N^7-bis(2-(2-(2-(2-(3-((S)-6,8-dichloro-2-methyl-1,2,3,4-tetrahydroisoquinolin-4-yl)phenylsulfonamido)ethoxy)ethoxy)ethoxy)ethyl)-4-(3-phenylureido)heptanediamide] | 0.1 to 10 | 0.1 to 10 | < 0.1 | –
CCCCCCCCCCC(=O)NC(CCC(=O)NCCOCCOCCOCCNS(=O)(=O)c1cccc([C@@H]2CN(C)Cc3c(Cl)cc(Cl)cc32)c1)(CCC(=O)NCCOCCOCCOCCNS(=O)(=O)c1cccc([C@@H]2CN(C)Cc3c(Cl)cc(Cl)cc32)c1)CCC(=O)NCCOCCOCCOCCNS(=O)(=O)c1cccc([C@@H]2CN(C)Cc3c(Cl)cc(Cl)cc32)c1 [Example 15, 4-(1-(3-((S)-6,8-dichloro-2-methyl-1,2,3,4-tetrahydroisoquinolin-4-yl)phenylsulfonamido)-13-oxo-3,6,9-trioxa-12-azapentadecan-15-yl)-N^1,N^7-bis(2-(2-(2-(2-(3-((S)-6,8-dichloro-2-methyl-1,2,3,4-tetrahydroisoquinolin-4-yl)phenylsulfonamido)ethoxy)ethoxy)ethoxy)ethyl)-4-undecanamidoheptanediamide] | 0.1 to 10 | > 10 | 0.1 to 10 | –
CN1Cc2c(Cl)cc(Cl)cc2[C@H](c2cccc(S(=O)(=O)NCCOCCOCCOCCNC(=O)CCC(CCC(=O)NCCOCCOCCOCCNS(=O)(=O)c3cccc([C@@H]4CN(C)Cc5c(Cl)cc(Cl)cc54)c3)(CCC(=O)NCCOCCOCCOCCNS(=O)(=O)c3cccc([C@@H]4CN(C)Cc5c(Cl)cc(Cl)cc54)c3)NC(=O)c3ccc(-c4ccc(Cl)cc4)cc3)c2)C1 [Example 16, 4-(4′-chlorobiphenyl-4-ylcarboxamido)-4-(1-(3-((S)-6,8-dichloro-2-methyl-1,2,3,4-tetrahydroisoquinolin-4-yl)phenylsulfonamido)-13-oxo-3,6,9-trioxa-12-azapentadecan-15-yl)-N^1,N^7-bis(2-(2-(2-(2-(3-((S)-6,8-dichloro-2-methyl-1,2,3,4-tetrahydroisoquinolin-4-yl)phenylsulfonamido)ethoxy)ethoxy)ethoxy)ethyl)heptanediamide] | > 10 | 0.1 to 10 | 0.1 to 10 | –
CN1Cc2c(Cl)cc(Cl)cc2[C@H](c2cccc(S(=O)(=O)NCCOCCOCCOCCn3cc(CN(Cc4cn(CCOCCOCCOCCNS(=O)(=O)c5cccc([C@@H]6CN(C)Cc7c(Cl)cc(Cl)cc76)c5)nn4)Cc4cn(CCOCCOCCOCCNS(=O)(=O)c5cccc([C@@H]6CN(C)Cc7c(Cl)cc(Cl)cc76)c5)nn4)nn3)c2)C1 [Example 18, (S,S)—N,N′,N″-(2,2′,2″-(2,2′,2″-(2,2′,2″-(2,2′,2″-(4,4′,4″-nitrilotris(methylene)tris(1H-1,2,3-triazole-4,1-diyl))tris(ethane-2,1-diyl))tris(oxy)tris(ethane-2,1-diyl))tris(oxy)tris(ethane-2,1-diyl))tris(oxy)tris(ethane-2,1-diyl))tris(3-((S)-6,8-dichloro-2-methyl-1,2,3,4-tetrahydroisoquinolin-4-yl)benzenesulfonamide)] | 0.1 to 10 | 0.1 to 10 | > 10 | –
CN1Cc2c(Cl)cc(Cl)cc2[C@H](c2cccc(S(=O)(=O)NCCOCCOCCNC(=O)CCC(CCC(=O)NCCOCCOCCNS(=O)(=O)c3cccc([C@@H]4CN(C)Cc5c(Cl)cc(Cl)cc54)c3)(CCC(=O)NCCOCCOCCNS(=O)(=O)c3cccc([C@@H]4CN(C)Cc5c(Cl)cc(Cl)cc54)c3)NC(=O)c3ccc(-c4ccc(Cl)cc4)cc3)c2)C1 [Example 35] | – | – | – | B (B NHE3 pIC50 5-7)
CN1Cc2c(Cl)cc(Cl)cc2[C@H](c2cccc(S(=O)(=O)NCCOCCOCCNC(=O)CN(CCOCCOCCN(CC(=O)NCCOCCOCCNS(=O)(=O)c3cccc([C@@H]4CN(C)Cc5c(Cl)cc(Cl)cc54)c3)CC(=O)NCCOCCOCCNS(=O)(=O)c3cccc([C@@H]4CN(C)Cc5c(Cl)cc(Cl)cc54)c3)CC(=O)NCCOCCOCCNS(=O)(=O)c3cccc([C@@H]4CN(C)Cc5c(Cl)cc(Cl)cc54)c3)c2)C1 [Example 50] | – | – | – | B (B NHE3 pIC50 5-7)
CN1Cc2c(Cl)cc(Cl)cc2[C@H](c2cccc(S(=O)(=O)NCCOCCOCCNC(=O)NCCN(CCNC(=O)NCCOCCOCCNS(=O)(=O)c3cccc([C@@H]4CN(C)Cc5c(Cl)cc(Cl)cc54)c3)C(=O)NCCCCNC(=O)N(CCNC(=O)NCCOCCOCCNS(=O)(=O)c3cccc([C@@H]4CN(C)Cc5c(Cl)cc(Cl)cc54)c3)CCNC(=O)NCCOCCOCCNS(=O)(=O)c3cccc([C@@H]4CN(C)Cc5c(Cl)cc(Cl)cc54)c3)c2)C1 [Example 60] | – | – | – | C (C NHE3 pIC50 > 7)
CN1Cc2c(Cl)cc(Cl)cc2[C@H](c2cccc(S(=O)(=O)NCCOCCOCCN(C)C(=O)CCC(CCC(=O)N(C)CCOCCOCCNS(=O)(=O)c3cccc([C@@H]4CN(C)Cc5c(Cl)cc(Cl)cc54)c3)(CCC(=O)N(C)CCOCCOCCNS(=O)(=O)c3cccc([C@@H]4CN(C)Cc5c(Cl)cc(Cl)cc54)c3)N(C)C)c2)C1 [Example 71] | – | – | – | C (C NHE3 pIC50 > 7)
